The values below come from ChEMBL document CHEMBL4177611, “Discovery of aminocyclohexene analogues as selective and orally bioavailable hNav1.7 inhibitors for analgesia” (Bioorg Med Chem Lett, 2017).

Series [1] has as its target Sodium channel protein type 9 subunit alpha (Homo sapiens, UniProt Q15858). Nature of the series: Inhibition of human Nav1.7 expressed in CHO-K1 cells at -120 mV holding potential incubated over 5 mins measured at 15 secs interval by Qpatch clamp assay. The series is classed as cell-based.
A short description of series [2]: Clearance in Sprague-Dawley rat administered as single iv bolus by LC-MS/MS analysis. It is filed as ADME, organism-based. Particulars: in vivo.
Series [3] can be described thus: Volume of distribution at steady state in Sprague-Dawley rat administered as single iv bolus by LC-MS/MS analysis. It is filed as ADME, organism-based. Particulars: in vivo, read-out: Vdss.
Series [4] in a line: AUC in Sprague-Dawley rat at 2 mg/kg administered as single dose via oral gavage by LC-MS/MS analysis. It is filed as ADME, organism-based. The following applies: in vivo.
Series [5] in a line: Oral bioavailability in Sprague-Dawley rat at 2 mg/kg administered as single dose via gavage by LC-MS/MS analysis. It is filed as ADME, organism-based. The following applies: in vivo.
For series [6], the system named is Rattus norvegicus. Briefly: Antinociceptive activity in Sprague-Dawley rat formalin-induced nociception model assessed as inhibition of formalin-induced flinches in phase 2 at 30 mg/kg, po administered via oral gavage 60 mins before formalin challenge measured for 1 hr post dose. It is filed as functional, organism-based.
The test system of series [7] is Rattus norvegicus. Nature of the series: Antinociceptive activity in Sprague-Dawley rat formalin-induced nociception model assessed as inhibition of formalin-induced flinches in phase 1 at 30 mg/kg, po administered via oral gavage 60 mins before formalin challenge measured for 1 hr post dose. It is filed as functional, organism-based.
Series [8] relates to Rattus norvegicus. Nature of the series: Antiallodynic activity in Sprague-Dawley rat spinal nerve ligation model assessed as reduction in mechanical allodynia by measuring paw withdrawal threshold at 100 mg/kg, po measured at 1 to 2 hrs post dose. The series is classed as functional, organism-based.
Series [9] has as its system Rattus norvegicus. Briefly: Antiallodynic activity in Sprague-Dawley rat spinal nerve ligation model assessed as reduction in mechanical allodynia by measuring paw withdrawal threshold at 30 mg/kg, po measured at 1 to 2 hrs post dose. The series is classed as functional, organism-based.
The species named for series [10] is Homo sapiens. Nature of the series: Selectivity ratio of IC50 for human Nav1.4 to IC50 for human Nav1.7 expressed in CHO-K1 cells. The series is classed as cell-based.
The species entered for series [11] is Homo sapiens. Briefly: Selectivity ratio of IC50 for human Nav1.5 expressed in HEK293 cells to IC50 for human Nav1.7 expressed in CHO-K1 cells. It is filed as cell-based.
The nature of series [12]: Ratio of total drug level in iv dosed rat brain to plasma measured 2 hrs post dose. The series is classed as ADME, organism-based. Particulars: read-out: BPR.
The nature of series [13]: in vitro. Particulars: human, Caco-2.
Series [14] is described as follows: in vitro. The following applies: human, Caco-2. This is another data set of the same source.
Series [15] can be described thus: AUC in Sprague-Dawley rat at 10 mg/kg administered as single dose via oral gavage by LC-MS/MS analysis. The series is classed as ADME, organism-based. The following applies: in vivo.
A short description of series [16]: Oral bioavailability in Sprague-Dawley rat at 10 mg/kg administered as single dose via gavage by LC-MS/MS analysis. It is filed as ADME, organism-based. Particulars: in vivo.
For series [17], the target named is T1, Cytochrome P450 1A2 (Homo sapiens, UniProt P05177).
T1 sequence (P05177 whole entry): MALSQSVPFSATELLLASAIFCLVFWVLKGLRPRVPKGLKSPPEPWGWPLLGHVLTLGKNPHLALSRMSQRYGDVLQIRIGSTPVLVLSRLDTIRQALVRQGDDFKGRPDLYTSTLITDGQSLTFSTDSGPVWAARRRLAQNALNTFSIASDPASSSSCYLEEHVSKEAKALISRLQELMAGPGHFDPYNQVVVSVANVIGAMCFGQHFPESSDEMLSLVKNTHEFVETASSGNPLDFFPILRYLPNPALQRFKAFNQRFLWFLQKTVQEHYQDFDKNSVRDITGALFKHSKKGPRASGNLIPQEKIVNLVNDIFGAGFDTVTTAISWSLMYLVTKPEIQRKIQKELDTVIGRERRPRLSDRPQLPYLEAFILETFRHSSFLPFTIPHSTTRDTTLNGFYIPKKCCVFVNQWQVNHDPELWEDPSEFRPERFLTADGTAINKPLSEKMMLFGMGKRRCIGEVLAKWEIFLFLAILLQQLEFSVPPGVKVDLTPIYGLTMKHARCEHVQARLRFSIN

Series [18] deals with Cytochrome P450 2C9 (Homo sapiens, UniProt P11712).
The target in series [19] is Cytochrome P450 2C19 (Homo sapiens, UniProt P33261).
For series [20], the target named is Cytochrome P450 2D6 (Homo sapiens, UniProt P10635).
For series [21], the target named is Cytochrome P450 3A4 (Homo sapiens, UniProt P08684).

Molecules are shown by their SMILES. Calls of active or inactive are those of the source.

Sequence of Cytochrome P450 3A4 (P08684 whole entry): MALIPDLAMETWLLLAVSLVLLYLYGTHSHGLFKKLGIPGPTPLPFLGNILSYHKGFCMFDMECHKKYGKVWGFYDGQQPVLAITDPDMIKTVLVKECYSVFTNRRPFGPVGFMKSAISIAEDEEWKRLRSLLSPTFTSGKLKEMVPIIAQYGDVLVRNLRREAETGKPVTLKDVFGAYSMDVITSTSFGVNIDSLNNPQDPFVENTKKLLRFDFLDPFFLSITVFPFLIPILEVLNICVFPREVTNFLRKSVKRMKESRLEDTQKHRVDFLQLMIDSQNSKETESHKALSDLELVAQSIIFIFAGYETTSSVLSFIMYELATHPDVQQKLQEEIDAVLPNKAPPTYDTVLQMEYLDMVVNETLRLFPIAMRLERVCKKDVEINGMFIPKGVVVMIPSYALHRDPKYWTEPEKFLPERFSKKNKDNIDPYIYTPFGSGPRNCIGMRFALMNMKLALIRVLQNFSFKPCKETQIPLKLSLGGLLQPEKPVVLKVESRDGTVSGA
Sequence of Cytochrome P450 2C19 (P33261 whole entry): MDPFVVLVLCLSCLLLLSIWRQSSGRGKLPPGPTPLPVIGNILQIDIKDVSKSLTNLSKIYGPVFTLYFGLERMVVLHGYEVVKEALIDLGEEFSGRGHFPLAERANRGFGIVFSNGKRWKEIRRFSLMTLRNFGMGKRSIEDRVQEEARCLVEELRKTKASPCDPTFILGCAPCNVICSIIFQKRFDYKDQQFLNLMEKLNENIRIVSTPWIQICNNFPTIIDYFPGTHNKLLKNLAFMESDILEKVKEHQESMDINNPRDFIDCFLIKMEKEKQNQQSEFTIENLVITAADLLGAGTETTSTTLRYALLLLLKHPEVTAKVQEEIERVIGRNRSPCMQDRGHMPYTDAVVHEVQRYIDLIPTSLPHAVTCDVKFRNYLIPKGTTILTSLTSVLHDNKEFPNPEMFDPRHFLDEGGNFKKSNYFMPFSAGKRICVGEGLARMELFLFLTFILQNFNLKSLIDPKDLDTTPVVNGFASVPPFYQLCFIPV
Sequence of Cytochrome P450 2C9 (P11712 whole entry): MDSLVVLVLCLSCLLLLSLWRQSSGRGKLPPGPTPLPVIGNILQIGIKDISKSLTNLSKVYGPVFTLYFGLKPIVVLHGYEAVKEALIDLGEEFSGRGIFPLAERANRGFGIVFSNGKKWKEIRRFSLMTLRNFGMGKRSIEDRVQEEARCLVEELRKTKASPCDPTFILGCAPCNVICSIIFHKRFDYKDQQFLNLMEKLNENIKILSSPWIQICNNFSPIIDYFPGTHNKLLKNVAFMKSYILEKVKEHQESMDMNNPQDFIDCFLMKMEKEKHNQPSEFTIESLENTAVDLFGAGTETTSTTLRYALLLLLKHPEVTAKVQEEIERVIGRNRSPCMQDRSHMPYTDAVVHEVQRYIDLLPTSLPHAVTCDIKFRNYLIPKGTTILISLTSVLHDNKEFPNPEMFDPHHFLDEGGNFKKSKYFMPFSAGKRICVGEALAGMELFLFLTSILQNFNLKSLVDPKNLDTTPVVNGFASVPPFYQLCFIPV
Sequence of Sodium channel protein type 9 subunit alpha (Q15858 whole entry): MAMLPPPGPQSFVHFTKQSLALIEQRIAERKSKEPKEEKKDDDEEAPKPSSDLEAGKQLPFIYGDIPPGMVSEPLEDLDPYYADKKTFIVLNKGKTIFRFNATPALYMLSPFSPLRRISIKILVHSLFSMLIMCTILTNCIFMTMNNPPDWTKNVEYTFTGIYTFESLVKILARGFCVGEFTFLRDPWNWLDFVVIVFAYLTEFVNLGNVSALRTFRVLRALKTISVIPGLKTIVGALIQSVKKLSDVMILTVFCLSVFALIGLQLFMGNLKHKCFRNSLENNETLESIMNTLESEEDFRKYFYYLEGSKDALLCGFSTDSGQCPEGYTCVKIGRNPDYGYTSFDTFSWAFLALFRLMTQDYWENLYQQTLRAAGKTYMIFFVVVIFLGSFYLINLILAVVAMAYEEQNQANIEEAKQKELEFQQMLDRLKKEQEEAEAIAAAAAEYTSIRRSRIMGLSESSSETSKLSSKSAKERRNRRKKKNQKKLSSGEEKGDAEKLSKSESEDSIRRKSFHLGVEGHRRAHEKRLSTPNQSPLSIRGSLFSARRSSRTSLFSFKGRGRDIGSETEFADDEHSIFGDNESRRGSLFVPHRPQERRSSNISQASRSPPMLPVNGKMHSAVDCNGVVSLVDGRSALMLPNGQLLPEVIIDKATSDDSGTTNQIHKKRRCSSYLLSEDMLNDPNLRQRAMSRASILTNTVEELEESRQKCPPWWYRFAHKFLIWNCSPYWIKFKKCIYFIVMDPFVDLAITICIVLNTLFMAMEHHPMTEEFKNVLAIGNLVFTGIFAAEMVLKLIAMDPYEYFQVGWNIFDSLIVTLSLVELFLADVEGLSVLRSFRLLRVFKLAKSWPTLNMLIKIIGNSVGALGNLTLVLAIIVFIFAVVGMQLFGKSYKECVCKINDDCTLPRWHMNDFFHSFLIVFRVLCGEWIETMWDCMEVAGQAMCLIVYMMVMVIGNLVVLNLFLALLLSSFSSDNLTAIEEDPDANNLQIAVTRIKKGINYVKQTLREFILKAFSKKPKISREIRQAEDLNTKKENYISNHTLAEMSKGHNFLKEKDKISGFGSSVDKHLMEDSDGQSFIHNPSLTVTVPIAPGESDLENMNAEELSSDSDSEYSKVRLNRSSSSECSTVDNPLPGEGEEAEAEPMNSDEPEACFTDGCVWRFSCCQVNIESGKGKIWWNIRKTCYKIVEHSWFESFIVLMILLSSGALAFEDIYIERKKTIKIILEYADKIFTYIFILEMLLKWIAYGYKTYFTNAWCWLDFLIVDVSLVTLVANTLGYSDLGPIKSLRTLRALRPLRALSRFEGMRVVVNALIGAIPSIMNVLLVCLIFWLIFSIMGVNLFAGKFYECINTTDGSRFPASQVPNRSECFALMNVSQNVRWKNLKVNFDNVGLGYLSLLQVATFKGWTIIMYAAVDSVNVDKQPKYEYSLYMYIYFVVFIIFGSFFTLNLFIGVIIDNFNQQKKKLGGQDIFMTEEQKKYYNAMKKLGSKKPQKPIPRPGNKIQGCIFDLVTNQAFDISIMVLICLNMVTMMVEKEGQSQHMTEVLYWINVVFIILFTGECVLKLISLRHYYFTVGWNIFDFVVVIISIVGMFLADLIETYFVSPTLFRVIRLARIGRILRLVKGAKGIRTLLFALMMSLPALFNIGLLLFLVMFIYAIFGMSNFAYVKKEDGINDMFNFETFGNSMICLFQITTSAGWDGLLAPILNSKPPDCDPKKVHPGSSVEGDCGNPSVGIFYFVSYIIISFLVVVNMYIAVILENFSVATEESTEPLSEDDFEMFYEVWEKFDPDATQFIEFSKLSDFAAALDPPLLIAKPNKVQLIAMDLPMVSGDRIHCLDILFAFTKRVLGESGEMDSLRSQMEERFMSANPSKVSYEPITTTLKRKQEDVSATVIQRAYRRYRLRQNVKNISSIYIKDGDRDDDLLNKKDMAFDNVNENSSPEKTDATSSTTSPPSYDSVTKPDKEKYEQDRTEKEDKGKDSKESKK
Sequence of Cytochrome P450 2D6 (P10635 whole entry): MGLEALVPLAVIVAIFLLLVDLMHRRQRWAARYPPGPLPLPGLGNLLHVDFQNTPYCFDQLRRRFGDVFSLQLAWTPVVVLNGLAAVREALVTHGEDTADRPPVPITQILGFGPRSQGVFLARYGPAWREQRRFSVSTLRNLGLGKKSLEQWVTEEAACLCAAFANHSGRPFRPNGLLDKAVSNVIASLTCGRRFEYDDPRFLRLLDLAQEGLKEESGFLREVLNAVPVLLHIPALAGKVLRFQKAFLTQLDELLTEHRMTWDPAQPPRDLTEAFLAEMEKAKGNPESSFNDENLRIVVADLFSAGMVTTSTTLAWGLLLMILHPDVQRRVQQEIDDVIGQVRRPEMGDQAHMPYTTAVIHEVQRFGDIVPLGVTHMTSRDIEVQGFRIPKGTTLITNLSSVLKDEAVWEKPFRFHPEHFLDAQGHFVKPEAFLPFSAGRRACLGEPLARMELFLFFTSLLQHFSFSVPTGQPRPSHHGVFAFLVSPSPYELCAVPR

On to `O=S(=O)(Nc1cscn1)c1cc(Cl)c(OC[C@@H]2C(c3ccc(F)cc3)=CCC[C@H]2n2cnnc2)cc1F` (racemic), for which the IC50 in series [1] was 770 nM. That is a sub-micromolar value.
Same read-out and setting: next, `CC(=O)N[C@@H]1CCC=C(c2ccc(F)cc2)[C@H]1COc1cc(F)c(S(=O)(=O)Nc2cscn2)cc1Cl` (racemic): 510 nM.
Regarding `Cl.N[C@@H]1CCC=C(c2ccc(F)cc2)[C@H]1CSc1cc(F)c(S(=O)(=O)Nc2cscn2)cc1Cl`, in series [1], the IC50 turned out to be 59 nM. For the same compound, the clearance in [2] was determined as 26.1 mL/min/kg. Further, the Vd in series [3] turned out to be 3.22 L/kg. Besides, in series [4], the AUC was determined as 0.62 µM·h. The compound also registered a bioavailability in series [5] of 27%.
Consider `CCN[C@@H]1CCC=C(c2ccc(F)cc2)[C@H]1COc1cc(F)c(S(=O)(=O)Nc2cscn2)cc1Cl`, for which the inhibition result in series [6] is “Active”. The inhibition result in [7] was “inactive”. For the same compound, the outcome in series [8] was Active. In addition, the outcome in [9] was inactive. For the same compound, the Ratio IC50 in [10] and in [11] was over 30 each time.
`CCN[C@@H]1CCC=C(c2ccc(F)cc2)[C@H]1COc1cc(F)c(S(=O)(=O)Nc2cscn2)cc1Cl.Cl` (racemic): in series [1], the IC50 was 59 nM. In addition, the Kp at 2 h in [12] was found to be 0.08. The Papp A→B at 2 h, 2 µM in [13] is 0.4 ×10⁻⁶ cm/s. Also, the efflux ratio at 2 h, 2 µM in series [14] stood at 70.
With `Cl.N[C@@H]1CCC=C(c2ccc(F)cc2)[C@H]1COc1cc(F)c(S(=O)(=O)Nc2nccs2)cc1Cl` (racemic), the IC50 is 2 nM in series [1]; over 50000 nM in series [17]; 100 nM in series [18]; 8000 nM in series [19]; 18000 nM in series [20]; over 50000 nM in series [21]. Moreover, the clearance in series [2] turned out to be 29 mL/min/kg. Besides, the Vd in series [3] amounted to 3.26 L/kg. Further, the AUC in series [15] worked out at 0.03 µM·h. Moreover, the bioavailability in [16] worked out at 0.3%.
Turning to `Cl.N[C@@H]1CCC=C(c2ccc(F)cc2)[C@H]1CNc1cc(F)c(S(=O)(=O)Nc2nccs2)cc1Cl`, the IC50 in series [1] was 33 nM; in series [17] it was over 50000 nM; in [18], 500 nM; in series [19], 5600 nM; in [20], 42600 nM; in series [21], over 50000 nM. The compound also showed a clearance in series [2] of 44.2 mL/min/kg. The Vd in [3] was determined as 4.24 L/kg. The same compound registered an AUC in [4] of 0.04 µM·h. This compound also came in with a bioavailability in [5] of 3%.
Regarding `O=S(=O)(Nc1cscn1)c1cc(Cl)c(OC[C@@H]2C(c3ccc(F)cc3)=CCC[C@H]2N2CCC2)cc1F` (racemic), inhibition in series [1] was half-maximal at 1150 nM (IC50). This lies in the single-digit micromolar range.
Still for that read-out and setting: the result for `CCN[C@@H]1CCC=C(c2ccc(F)cc2)[C@H]1CNc1cc(F)c(S(=O)(=O)Nc2cscn2)cc1Cl` reads 200 nM.
`Cl.N[C@@H]1CCC=C(c2ccc(F)cc2)[C@H]1CSc1cc(F)c(S(=O)(=O)Nc2nccs2)cc1Cl`: the IC50 in series [1] was 5 nM; in series [17] it was over 50000 nM; in series [18], 100 nM; in [19] it was 3300 nM; in series [20], 18000 nM; in series [21] it was 5100 nM. In addition, the clearance in [2] turned out to be 46.5 mL/min/kg. Further, in [3], the Vd turned out to be 6.05 L/kg. The compound also showed an exposure (AUC) in series [4] of 0.17 µM·h. The compound further had a bioavailability in [5] of 14%.
Take `CN(C)[C@@H]1CCC=C(c2ccc(F)cc2)[C@H]1COc1cc(F)c(S(=O)(=O)Nc2cscn2)cc1Cl.Cl` (racemic): half-maximal inhibition in [1] (IC50) required 14 nM. Besides, the Kp at 2 h in series [12] is 0.6. In series [13], the Papp A→B at 2 h, 2 µM stood at 10 ×10⁻⁶ cm/s. The efflux ratio at 2 h, 2 µM in series [14] turned out to be 1.8.
In series [1], `O=S(=O)(Nc1cscn1)c1cc(Cl)c(OC[C@@H]2C(c3ccc(F)cc3)=CCC[C@H]2n2ccnc2)cc1F` (racemic) came in with an IC50 of 2340 nM. This counts as single-digit micromolar.
Turning to `CCN[C@@H]1CCC=C(c2ccc(F)cc2)[C@H]1CNc1cc(F)c(S(=O)(=O)Nc2nccs2)cc1Cl.Cl`, the IC50 in [1] is 6 nM; in [17] it was over 50000 nM; in series [18], 200 nM; in series [19], 2100 nM; in [20] it was 14100 nM; in series [21] it was 16500 nM. The clearance in series [2] was 27.5 mL/min/kg. Moreover, in series [3], the Vd amounted to 3.07 L/kg. This compound also displayed an AUC in series [4] of 0.29 µM·h. For the same compound, the bioavailability in series [5] came out at 14%.
The compound `CC(C)N[C@@H]1CCC=C(c2ccc(F)cc2)[C@H]1COc1cc(F)c(S(=O)(=O)Nc2cscn2)cc1Cl.Cl` (racemic) registered an IC50 in series [1] of 94 nM. Besides, the Kp at 2 h in series [12] was found to be 0.08. The same compound yielded a Papp A→B at 2 h, 2 µM in [13] of 1.1 ×10⁻⁶ cm/s. In addition, the efflux ratio at 2 h, 2 µM in series [14] is 37.
Take `CCN[C@@H]1CCC=C(c2ccc(F)cc2)[C@H]1COc1cc(F)c(S(=O)(=O)Nc2nccs2)cc1Cl.Cl` (racemic): the IC50 is 48 nM in [1]; over 50000 nM in series [17]; 200 nM in [18]; 1500 nM in series [19]; 4500 nM in series [20]; 21600 nM in series [21]. Moreover, the clearance in series [2] turned out to be 66.6 mL/min/kg. Besides, the Vd in [3] was determined as 6.21 L/kg. For the same compound, the AUC in [15] is 0.12 µM·h. In series [16], the bioavailability is 3%.
`CCN(CC)[C@@H]1CCC=C(c2ccc(F)cc2)[C@H]1COc1cc(F)c(S(=O)(=O)Nc2cscn2)cc1Cl` (racemic) registered an IC50 in series [1] of 310 nM. That is a sub-micromolar value.
For the compound `CN[C@@H]1CCC=C(c2ccc(F)cc2)[C@H]1COc1cc(F)c(S(=O)(=O)Nc2cscn2)cc1Cl.Cl` (racemic), the IC50 in [1] is 170 nM. In addition, the Kp at 2 h in [12] is 0.04. This compound also gave a Papp A→B at 2 h, 2 µM in [13] of 0.2 ×10⁻⁶ cm/s. In addition, the efflux ratio at 2 h, 2 µM in series [14] was 127.
In turn, `CCN[C@@H]1CCC=C(c2ccc(F)cc2)[C@H]1CSc1cc(F)c(S(=O)(=O)Nc2cscn2)cc1Cl` showed an IC50 in [1] of 100 nM. In other words, the sub-micromolar range.
